From publication PMC5515971, “Utility of spherical human liver microtissues for prediction of clinical drug-induced liver injury” (Archives of Toxicology, 2017)
Where two headings read alike, the source gives them in different places.

Experiments:
[1] = tested on: 3D human liver microtissues (hLiMT); assay: Cytotoxicity (cellular ATP) in 3D human liver microtissues, 5-6 days treatment; format: cell-based; conditions: Homo sapiens; hLiMT, 5/6 days, ATP content; read-out: IC50 SHORT;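 also: Hanging-drop spheroids, seven-point dilution series, re-dosed on day 3, CellTiter-Glo 2.0 luminescence, normalized to 0.5 or 1% DMSO vehicle controls on the same plate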
[2] = cited from earlier work
[3] = tested on: 3D human liver microtissues (hLiMT); assay: Cytotoxicity (cellular ATP, CellTiter-Glo 2.0) in 3D human liver microtissues, 14 day repeat-dose treatment
[4] = tested on: primary human hepatocytes (PHH); assay: Cytotoxicity (cellular ATP, CellTiter-Glo) in 2D plated primary human hepatocytes, 48 h treatment; format: cell-based; conditions: for IC50: 2D primary human hepatocytes (lot IZT), 48 h treatment, total cellular ATP content, read-out: Geomean IC50;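 as to all read-outs here: 384-well plates, luminescence read-out, normalized to vehicle wells with 1% DMSO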
Experimental: Cryopreserved PHH (lot IZT) were thawed in InVitroGro HT™ thawing media at 37 °C, pelleted, and resuspended. Viable hepatocytes were counted by Trypan blue exclusion and plated in black-walled, BioCoat™ collagen 384-well plates at 13,000 cells/well in InVitroGro CP™ plating media supplemented with 1% Torpedo™ Antibiotic Mix and 5% fetal bovine serum and incubated overnight for 18 h. Cells were then treated with compounds for 48 h diluted in InVitroGro HI™ incubation media containing 1% Torpedo Antibiotic Mix, 10% fetal bovine serum, and 1% DMSO. […] Luminescence was determined on an EnVision™ Muliplate Reader (PerkinElmer, Waltham, MA, USA), and data were normalized to vehicle (1% DMSO) control wells.

[5] = ref Chen et al 2016 / Chen et al 2011; cited from earlier work
[6] = cited from earlier work; for DILI category: clinical, from literature and product labels
[7] = human Cmax total, used for IC50/Cmax
[8] = human total plasma Cmax, ref literature values
[9] = Homo sapiens, Hepatocyte, 336 h, read-out: Geomean IC50 [µM]
[10] = Table 1, ref Garside et al. (2014)
[11] = clinical DILI severity category, 1-5

COc1ccc2cc([C@H](C)C(=O)O)ccc2c1 [Naproxen]
IC50 [1]: 100 µM

O=c1[nH]c2ccccc2n1C1CCN(CCCC(c2ccc(F)cc2)c2ccc(F)cc2)CC1 [Pimozide]
Cmax [2, 7]: 0.11 µM
Cmax [2, 8]: 0.11 µM
IC50 [3, 9]: > 6 µM
IC50 ([4]; Hepatocyte): 17.6 µM
FDA DILI Classification DILI severity score [5]: 0
LTKB DILI classification [5]: no DILI concern
DILI severity category [6, 10]: 3: Low clinical DILI concern (N = 23)
DILI severity category [6, 11]: 3. Low Clinical DILI Concern
DILI category ([6]; ref Garside et al. 2014): 3. Low Clinical DILI Concern

CCN(CC)CCNC(=O)c1c(C)[nH]c(/C=C2\C(=O)Nc3ccc(F)cc32)c1C [Sunitinib]
Cmax [2, 8]: 70.8 µM
IC50 [3, 9]: ~2 µM
IC50 ([4]; Hepatocyte): 13.3 µM
FDA DILI Classification DILI severity score [5]: 8
LTKB DILI classification [5]: most DILI concern
DILI severity category [6, 10]: 1: Severe clinical DILI (N = 23)
DILI severity category [6, 11]: 1. Severe Clinical DILI
DILI category ([6]; ref Garside et al. 2014): 1. Severe Clinical DILI

CCc1ccc(CCOc2ccc(CC3SC(=O)NC3=O)cc2)nc1 (centres unmarked) [Pioglizatone, Pioglitazone]
Cmax [2, 7]: 2.95 µM
Cmax [2, 8]: 2.95 µM
IC50 [3, 9]: > 15.6 µM
IC50 ([4]; Hepatocyte): > 125 µM
FDA DILI Classification DILI severity score [5]: 3
LTKB DILI classification [5]: less DILI concern
DILI severity category [6, 10]: 3: Low clinical DILI concern (N = 23)
DILI severity category [6, 11]: 3. Low Clinical DILI Concern
DILI category ([6]; ref Garside et al. 2014): 3. Low Clinical DILI Concern

NC(=O)N1c2ccccc2C=Cc2ccccc21 [Carbamazepine]
Cmax [2, 7]: 50.8 µM
Cmax [2, 8]: 50.8 µM
IC50 [3, 9]: 267 µM
IC50 ([4]; Hepatocyte): > 500 µM
FDA DILI Classification DILI severity score [5]: 7
LTKB DILI classification [5]: most DILI concern
DILI severity category [6, 10]: 2: High clinical DILI concern (N = 23)
DILI severity category [6, 11]: 2. High Clinical DILI Concern
DILI category ([6]; ref Garside et al. 2014): 2. High Clinical DILI Concern

Cn1cnc([N+](=O)[O-])c1Sc1ncnc2nc[nH]c12 [Azathioprine]
Cmax [2, 7]: 7.2 µM
Cmax [2, 8]: 7.21 µM
IC50 [3, 9]: 22.2 µM
IC50 ([4]; Hepatocyte): > 100 µM
FDA DILI Classification DILI severity score [5]: 5
LTKB DILI classification [5]: most DILI concern
DILI severity category [6, 10]: 2: High clinical DILI concern (N = 23)
DILI severity category [6, 11]: 2. High Clinical DILI Concern
DILI category ([6]; ref Garside et al. 2014): 2. High Clinical DILI Concern

CCc1oc2ccccc2c1C(=O)c1cc(Br)c(O)c(Br)c1 [Benzbromarone]
Cmax [2, 7]: 23.6 µM
Cmax [2, 8]: 23.6 µM
IC50 [3, 9]: 11.8 µM
IC50 ([4]; Hepatocyte): 171 µM
FDA DILI Classification DILI severity score [5]: 8
LTKB DILI classification [5]: most DILI concern
DILI severity category [6, 10]: 1: Severe clinical DILI (N = 23)
DILI severity category [6, 11]: 1. Severe Clinical DILI
DILI category ([6]; ref Garside et al. 2014): 1. Severe Clinical DILI

CC(C)c1c(C(=O)Nc2ccccc2)c(-c2ccccc2)c(-c2ccc(F)cc2)n1CC[C@@H](O)C[C@@H](O)CC(=O)O [Atorvastatin]
IC50 [1]: 70.7 µM
IC50 [3, 9]: 6 µM

CC(=O)Oc1ccccc1C(=O)O [Acetylsalicylic acid]
Cmax [2, 7]: 1110 µM
Cmax [2, 8]: 1110 µM
IC50 [3, 9]: > 1000 µM
IC50 ([4]; Hepatocyte): > 1000 µM
FDA DILI Classification DILI severity score [5]: 5
DILI severity category [6, 10]: 3: Low clinical DILI concern (N = 23)
DILI severity category [6, 11]: 3. Low Clinical DILI Concern
DILI category ([6]; ref Garside et al. 2014): 3. Low Clinical DILI Concern

Cc1cn([C@H]2C=C[C@@H](CO)O2)c(=O)[nH]c1=O [Stavudine]
Cmax [2, 7]: 3.46 µM
Cmax [2, 8]: 3.46 µM
IC50 [3, 9]: > 500 µM
IC50 ([4]; Hepatocyte): > 500 µM
FDA DILI Classification DILI severity score [5]: 8
LTKB DILI classification [5]: most DILI concern
DILI severity category [6, 10]: 1: Severe clinical DILI (N = 23)
DILI severity category [6, 11]: 1. Severe Clinical DILI
DILI category ([6]; ref Garside et al. 2014): 1. Severe Clinical DILI

CS(=O)(=O)CCNCc1ccc(-c2ccc3ncnc(Nc4ccc(OCc5cccc(F)c5)c(Cl)c4)c3c2)o1 [Lapatinib]
Cmax [2, 7]: 19 µM
Cmax [2, 8]: 19 µM
IC50 [3, 9]: ~27.3 µM
IC50 ([4]; Hepatocyte): 33.3 µM
FDA DILI Classification DILI severity score [5]: 8
LTKB DILI classification [5]: most DILI concern
DILI severity category [6, 10]: 1: Severe clinical DILI (N = 23)
DILI severity category [6, 11]: 1. Severe Clinical DILI
DILI category ([6]; ref Garside et al. 2014): 1. Severe Clinical DILI

O=C1CN(/N=C/c2ccc(-c3ccc([N+](=O)[O-])cc3)o2)C(O)=N1 [Dantrolene]
Cmax [2, 7]: 3.95 µM
Cmax [2, 8]: 3.95 µM
IC50 [3, 9]: > 100 µM
IC50 ([4]; Hepatocyte): > 100 µM
FDA DILI Classification DILI severity score [5]: 8
LTKB DILI classification [5]: most DILI concern
DILI severity category [6, 10]: 1: Severe clinical DILI (N = 23)
DILI severity category [6, 11]: 1. Severe Clinical DILI
DILI category ([6]; ref Garside et al. 2014): 1. Severe Clinical DILI

CC(c1cc2ccccc2s1)N(O)C(N)=O (centres unmarked) [Zileuton]
Cmax [2, 7]: 13.1 µM
Cmax [2, 8]: 13.1 µM
IC50 [3, 9]: > 100 µM
IC50 ([4]; Hepatocyte): > 100 µM
FDA DILI Classification DILI severity score [5]: 5
LTKB DILI classification [5]: most DILI concern
DILI severity category [6, 10]: 2: High clinical DILI concern (N = 23)
DILI severity category [6, 11]: 2. High Clinical DILI Concern
DILI category ([6]; ref Garside et al. 2014): 2. High Clinical DILI Concern

O=C1[C@H](CC[C@H](O)c2ccc(F)cc2)[C@@H](c2ccc(O)cc2)N1c1ccc(F)cc1 [Ezetimibe]
IC50 [1]: 45.6 µM
IC50 ([3]; Homo sapiens, 336 h, read-out: IC50 LONG): 45.5 µM
DILI severity category ([6]; table S-4, ref Garside et al. 2014): 3

Cc1cc2c(cc1CC(=O)c1sccc1S(=O)(=O)Nc1onc(C)c1Cl)OCO2 [Sitax(s)entan]
Cmax [2, 7]: 28.6 µM
Cmax [2, 8]: 28.6 µM
IC50 ([3]; read-out: Geomean IC50, decrease in total cellular ATP content, hLiMT treated for 14 days, hepatocyte lot IZT (except Dexamethasone) co-cultured with NPCs, n=1 or geometric mean): 249 µM
IC50 [4]: > 500 µM
cytotoxicity IC50 detected ([4]; PHH 48 h, in words): no IC50 values were detected
FDA DILI Classification DILI severity score [5]: 8
LTKB DILI classification [5]: most DILI concern
DILI severity category [6, 10]: 1: Severe clinical DILI (N = 23)
DILI severity category [6, 11]: 1. Severe Clinical DILI
DILI category ([6]; ref Garside et al. 2014): 1. Severe Clinical DILI

CC(C(=O)O)c1ccc2oc(-c3ccc(Cl)cc3)nc2c1 (centres unmarked) [Benoxaprofen]
Cmax [2, 7]: 149 µM
Cmax [2, 8]: 149 µM
IC50 [3, 9]: > 100 µM
IC50 ([4]; Hepatocyte): > 100 µM
FDA DILI Classification DILI severity score [5]: 8
LTKB DILI classification [5]: most DILI concern
DILI severity category [6, 10]: 1: Severe clinical DILI (N = 23)
DILI severity category [6, 11]: 1. Severe Clinical DILI
DILI category ([6]; ref Garside et al. 2014): 1. Severe Clinical DILI

CCC(C)n1ncn(-c2ccc(N3CCN(c4ccc(OCC5COC(Cn6cncn6)(c6ccc(Cl)cc6Cl)O5)cc4)CC3)cc2)c1=O (centres unmarked) [Itraconazole]
Cmax [2, 7]: 2.8 µM
Cmax [2, 8]: 2.83 µM
IC50 [3, 9]: 1.6 µM
IC50 ([4]; Hepatocyte): > 25 µM
FDA DILI Classification DILI severity score [5]: 8
LTKB DILI classification [5]: most DILI concern
DILI severity category [6, 10]: 2: High clinical DILI concern (N = 23)
DILI severity category [6, 11]: 2. High Clinical DILI Concern
DILI category ([6]; ref Garside et al. 2014): 2. High Clinical DILI Concern

NC(=O)OCC(COC(N)=O)c1ccccc1 [Felbamate]
Cmax [2, 7]: 399 µM
Cmax [2, 8]: 399 µM
IC50 [3, 9]: > 100 µM
IC50 ([4]; Hepatocyte): > 100 µM
FDA DILI Classification DILI severity score [5]: 7
LTKB DILI classification [5]: most DILI concern
DILI severity category [6, 10]: 1: Severe clinical DILI (N = 23)
DILI severity category [6, 11]: 1. Severe Clinical DILI
DILI category ([6]; ref Garside et al. 2014): 1. Severe Clinical DILI
